The values that follow come from patent US20100240642A1, “1H-Indole-2-Carboxylic Acid Derivatives Useful As PPAR Modulators” (SMITHKLINE BEECHAM CORPORATION, priority 2006, published 2010).

Molecules are shown by their SMILES.

The assay concerns the target T1, hPPARγ receptor (Homo sapiens, UniProt P37231).
T1 construct: expressed in transfected cells; host or cells: CV-1 (African Green Monkey kidney, ATCC CCL-70)
T1 sequence (P37231 172-475 isoform P37231-2): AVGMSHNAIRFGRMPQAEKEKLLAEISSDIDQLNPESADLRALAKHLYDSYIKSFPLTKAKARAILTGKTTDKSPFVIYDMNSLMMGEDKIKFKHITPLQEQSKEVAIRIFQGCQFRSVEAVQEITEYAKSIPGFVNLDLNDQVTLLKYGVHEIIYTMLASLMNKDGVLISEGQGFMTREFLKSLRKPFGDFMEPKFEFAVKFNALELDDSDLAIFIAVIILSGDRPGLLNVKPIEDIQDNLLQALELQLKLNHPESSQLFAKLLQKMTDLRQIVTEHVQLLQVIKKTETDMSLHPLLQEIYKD
The assay is described as follows: PPARγ Cell-based luciferase assay. To be noted: CV-1 cells transfected with GAL4-hPPARγ LBD and UAStkLuc; at concentrations of 10^−6 M or less; read-out: agonism of the hPPARγ receptor (activation relative to full agonist rosiglitazone). An excerpt: Plasmids—PCR primers containing Kpnl and BamHI restriction sites were used to amplify PPARγ ligand binding domain (LBD) fragment (172-475) from a full-length human clone. The LBD fragment was ligated into the multiple cloning site of pFA-CMV (Stratagene). The resulting construct (pFA-CMV-GAL4-hPPARγLBD carried a fusion of the LBD with the yeast-derived GAL4 DNA-binding domain under the control of the CMV immediate early promoter. Reporter construct UAStkLuc carries a single 17 bp (CGGAGTACTGTCCTCCG) upstream activating sequence (UAS), the tk minimal promoter, and the firefly luciferase gene. The integrity of each construct was confirmed by diagnostic restriction digestion and by sequencing. Plasmid DNA was prepared using Qiagen Maxi-Prep kits.
PPARγ Cell-based luciferase assay—African Green Monkey kidney cell line CV-1 (ATCC CCL-70) was maintained in Dulbecco's Modified Eagle's Medium (D-MEM) containing 10% fetal bovine serum, 2 mM glutamine, and 1% penicillin/streptomycin (pen/strep). In preparation for luciferase assays, CV-1 cells were grown in charcoal-stripped cell medium containing D-MEM/F-12 medium supplemented with 5% or 3% dextran-treated/charcoal-stripped (CS) fetal bovine serum, 2 mM glutamine, with or without 1% pen/strep, as described below. CS fetal bovine serum was purchased from Hyclone; all other cell culture reagents were from Gibco.
The luciferase protocol is a multi-day procedure. On day 1, confluent cells in maintenance medium were subcultured 1:10 into T-175 cm^2 flasks containing 50 mL of 3% CS medium with pen/strep. These flasks were allowed to incubate at 5% CO2 and 37° C. for 72 hours.
Cells were harvested by trypsinization and then transfected using FuGENE (Roche) according to the manufacturer's specifications. Briefly, each transfection contained 0.55 μg pFA_CMV_GAL4_hPPARγ_LBD plasmid, 10.9 μg UAStkLUC, and 24 μg pBluescript (carrier DNA). Plasmid DNA was mixed with FuGENE in OptiMEM-1 medium and incubated for 30 min at room temperature. During this incubation, cells were harvested into 3% CS medium without pen-strep and dispensed at 14 million cells per T-175 cm^2 flask. Transfection mixes were added to the flasks and incubated overnight at 5% CO2 and 37° C.
Transfected cells were added to 384-well plates containing pharmacological agents. Rosiglitazone standard was reconstituted in DMSO at 1 mM. For 11-point dose-response experiments, the compounds were 3-fold serially diluted in DMSO and then stamped to 384-well assay plates (NUNC, catalog #164564) at 0.5 μL/well using a Beckman FX. DMSO and agonist control compound Rosiglitazone (1 mM) were each stamped at 0.5 μL/well to columns 23 and 24, respectively, of the 384-well plates. Transfected cells were harvested in 5% CS medium with pen/strep and dispensed at 10,000 cells/well (50 μL) onto the prepared 384-well compound plates using a Titertek Multidrop. Following overnight incubation at 5% CO2 and 37° C., Steady-Glo reagent (Promega) was added to the assay plates using a Multidrop. Plates were incubated for 10 min to ensure complete cell lysis and read in a ViewLux (PerkinElmer). […] Partial agonism is defined here as 20-80% activation (relative to full agonist rosiglitazone) at concentrations of 10^−6 M or less.

On to `CC(C)(C)c1ccc(-c2c(C(=O)O)n(Cc3cc(OCc4ccccc4)cc(OCC4CC4)c3)c3ccccc23)cc1` [Example 1, 1-({3-[(cyclopropylmethyl)oxy]-5-[(phenylmethyl)oxy]phenyl}methyl)-3-[4-(1,1-dimethylethyl)phenyl]-1H-indole-2-carboxylic acid], for which the Emax was 20 to 80%.
In the case of `CC(C)(C)c1ccc(-c2c(C(=O)O)n(Cc3cc(O)cc(OCC4CC4)c3)c3ccccc23)cc1` [Example 3, 1-({3-[(cyclopropylmethyl)oxy]-5-hydroxyphenyl}methyl)-3-[4-(1,1-dimethylethyl)phenyl]-1H-indole-2-carboxylic acid], the Emax is 20 to 80%.
As for `COc1cc(Cn2c(C(=O)O)c(-c3ccc(C(C)(C)C)cc3)c3ccccc32)cc(OCC2CC2)c1` [Example 4, 1-{[3-[(cyclopropylmethyl)oxy]-5-(methyloxy)phenyl]methyl}-3-[4-(1,1-dimethylethyl)phenyl]-1H-indole-2-carboxylic acid], the figure is 20 to 80%.
For `CC(C)(C)c1ccc(-c2c(C(=O)O)n(Cc3cc(OCC4CC4)cc(OCC4CC4)c3)c3ccccc23)cc1` [Example 5, 1-({3,5-bis[(cyclopropylmethyl)oxy]phenyl}methyl)-3-[4-(1,1-dimethylethyl)phenyl]-1H-indole-2-carboxylic acid], the Emax lay within 20 to 80%.
Turning to `CC(C)CCOc1cc(Cn2c(C(=O)O)c(-c3ccc(C(C)(C)C)cc3)c3ccccc32)cc(OCC2CC2)c1` [Example 6, 1-({3-[(cyclopropylmethyl)oxy]-5-[(3-methylbutyl)oxy]phenyl}methyl)-3-[4-(1,1-dimethylethyl)phenyl]-1H-indole-2-carboxylic acid], the Emax fell in the range of 20 to 80%.
As to `CC(C)(C)c1ccc(-c2c(C(=O)O)n(Cc3cccc(-c4ccc(C(=O)O)cc4)c3)c3ccccc23)cc1` [Example 7, 1-[(4′-carboxy-3-biphenylyl)methyl]-3-[4-(1,1-dimethylethyl)phenyl]-1H-indole-2-carboxylic acid], the Emax was 20 to 80%.
Turning to `CC(C)(C)c1ccc(-c2c(C(=O)O)n(Cc3cccc(-c4ccc(OCc5ccccc5)cc4)c3)c3ccccc23)cc1` [Example 8, 3-[4-(1,1-dimethylethyl)phenyl]-1-({4′-[(phenylmethyl)oxy]-3-biphenylyl}methyl)-1H-indole-2-carboxylic acid], the Emax was 20 to 80%.
Regarding `CC(C)(C)c1ccc(-c2c(C(=O)O)n(Cc3cccc(-c4ccc(O)cc4)c3)c3ccccc23)cc1` [Example 9, 3-[4-(1,1-dimethylethyl)phenyl]-1-[(4′-hydroxy-3-biphenylyl)methyl]-1H-indole-2-carboxylic acid], the Emax lay within 20 to 80%.
For the compound `Cc1ccc(-c2ccc(O)cc2)cc1Cn1c(C(=O)O)c(-c2ccc(C(C)(C)C)cc2)c2ccccc21` [Example 10, 3-[4-(1,1-dimethylethyl)phenyl]-1-[(4′-hydroxy-4-methyl-3-biphenylyl)methyl]-1H-indole-2-carboxylic acid], the Emax was in the range of 20 to 80%.
With `Cc1ccc(-c2ccc(OC(C)(C)C(=O)O)cc2)cc1Cn1c(C(=O)O)c(-c2ccc(C(C)(C)C)cc2)c2ccccc21` [Example 12, 1-({4′-[(1-carboxy-1-methylethyl)oxy]-4-methyl-3-biphenylyl}methyl)-3-[4-(1,1-dimethylethyl)phenyl]-1H-indole-2-carboxylic acid], the Emax fell in the range of 20 to 80%.
For the compound `COc1ccc(-c2ccc(C)c(Cn3c(C(=O)O)c(-c4ccc(C(C)(C)C)cc4)c4ccccc43)c2)cc1` [Example 13, 3-[4-(1,1-dimethylethyl)phenyl]-1-{[4-methyl-4′-(methyloxy)-3-biphenylyl]methyl}-1H-indole-2-carboxylic acid], the Emax is 20 to 80%.
Turning to `CC(=O)c1ccc(-c2c(C(=O)O)n(Cc3cc(-c4ccc(C(=O)O)cc4)ccc3C)c3ccccc23)cc1` [Example 14, 3-(4-acetylphenyl)-1-[(4′-carboxy-4-methyl-3-biphenylyl)methyl]-1H-indole-2-carboxylic acid], the Emax lay within 20 to 80%.
Take `CC(C)(C)c1ccc(-c2c(C(=O)O)n(Cc3cc(OCC4CC4)cc(-c4ccc(C(=O)O)cc4)c3)c3ccccc23)cc1` [Example 15, 1-({4′-carboxy-5-[(cyclopropylmethyl)oxy]-3-biphenylyl}methyl)-3-[4-(1,1-dimethylethyl)phenyl]-1H-indole-2-carboxylic acid]: the Emax lay in the range of 20 to 80%.
Consider `COc1ccc(-c2c(C(=O)O)n(Cc3cccc(-c4ccc(O)cc4)c3)c3ccccc23)cn1` [Example 16, 1-[(4′-hydroxy-3-biphenylyl)methyl]-3-[6-(methyloxy)-3-pyridinyl]-1H-indole-2-carboxylic acid], for which the Emax lay within 20 to 80%.
Consider `CSc1cccc(-c2ccc(C)c(Cn3c(C(=O)O)c(-c4ccc(C(C)(C)C)cc4)c4ccccc43)c2)c1` [Example 17, 3-[4-(1,1-dimethylethyl)phenyl]-1-{[4-methyl-3′-(methylthio)-3-biphenylyl]methyl}-1H-indole-2-carboxylic acid], for which the Emax lay within 20 to 80%.
Turning to `CC(C)(C)c1ccc(-c2c(C(=O)O)n(Cc3cc(OCc4ccccc4)cc(-c4ccc(C(=O)O)cc4)c3)c3ccccc23)cc1` [Example 19, 1-({4′-carboxy-5-[(phenylmethyl)oxy]-3-biphenylyl}methyl)-3-[4-(1,1-dimethylethyl)phenyl]-1H-indole-2-carboxylic acid], the Emax fell in the range of 20 to 80%.
For `COCCOc1cc(Cn2c(C(=O)O)c(-c3ccc(C(C)(C)C)cc3)c3ccccc32)cc(-c2ccc(C(=O)O)cc2)c1` [Example 20], the Emax fell in the range of 20 to 80%.
For `COc1ccc(-c2c(C(=O)O)n(Cc3cc(-c4ccc(C(=O)O)cc4)ccc3C)c3ccccc23)cn1` [Example 21, 1-[(4′-carboxy-4-methyl-3-biphenylyl)methyl]-3-[6-(methyloxy)-3-pyridinyl]-1H-indole-2-carboxylic acid], the Emax lay in the range of 20 to 80%.
As for `CC(C)(C)c1ccc(-c2c(C(=O)O)n(Cc3cc(O)cc(-c4ccc(C(=O)O)cc4)c3)c3ccccc23)cc1` [Example 22, 1-[(4′-carboxy-5-hydroxy-3-biphenylyl)methyl]-3-[4-(1,1-dimethylethyl)phenyl]-1H-indole-2-carboxylic acid], the figure is 20 to 80%.
As for `CSc1ccc(-c2cccc(Cn3c(C(=O)O)c(-c4ccc(C(C)(C)C)cc4)c4ccccc43)c2)cc1` [Example 23, 3-[4-(1,1-dimethylethyl)phenyl]-1-{[4′-(methylthio)-3-biphenylyl]methyl}-1H-indole-2-carboxylic acid], the figure is 20 to 80%.
Regarding `CC(C)(C)c1ccc(-c2c(C(=O)O)n(Cc3cccc(-c4cccc(S(C)(=O)=O)c4)c3)c3ccccc23)cc1` [Example 25, 3-[4-(1,1-dimethylethyl)phenyl]-1-{[3′-(methylsulfonyl)-3-biphenylyl]methyl}-1H-indole-2-carboxylic acid], the Emax lay within 20 to 80%.
Regarding `CC(C)(C)c1ccc(-c2c(C(=O)O)n(Cc3cccc(N4CCOCC4)c3)c3ccccc23)cc1` [Example 26, 3-[4-(1,1-dimethylethyl)phenyl]-1-{[3-(4-morpholinyl)phenyl]methyl}-1H-indole-2-carboxylic acid], the Emax was 20 to 80%.
For `Cc1ccc(N2CCOCC2)cc1Cn1c(C(=O)O)c(-c2ccc(C(C)(C)C)cc2)c2ccccc21` [Example 27, 3-[4-(1,1-dimethylethyl)phenyl]-1-{[2-methyl-5-(4-morpholinyl)phenyl]methyl}-1H-indole-2-carboxylic acid], the Emax lay in the range of 20 to 80%.
